pIC50: −log10 of the molar value.
Key:
[1] = Inhibition of bovine liver beta-glucosidase using p-nitrophenyl-glycoside as substrate by spectrophotometric method; parameters: species or system Bos taurus
[2] = biological target: T1, Uncharacterized protein (Sus scrofa) (UniProt I3LIR5); test: Inhibition of porcine kidney trehalase assessed as D-glucose level at 100 uM using maltose as substrate measured after 10 to 30 mins
T1 sequence (whole entry): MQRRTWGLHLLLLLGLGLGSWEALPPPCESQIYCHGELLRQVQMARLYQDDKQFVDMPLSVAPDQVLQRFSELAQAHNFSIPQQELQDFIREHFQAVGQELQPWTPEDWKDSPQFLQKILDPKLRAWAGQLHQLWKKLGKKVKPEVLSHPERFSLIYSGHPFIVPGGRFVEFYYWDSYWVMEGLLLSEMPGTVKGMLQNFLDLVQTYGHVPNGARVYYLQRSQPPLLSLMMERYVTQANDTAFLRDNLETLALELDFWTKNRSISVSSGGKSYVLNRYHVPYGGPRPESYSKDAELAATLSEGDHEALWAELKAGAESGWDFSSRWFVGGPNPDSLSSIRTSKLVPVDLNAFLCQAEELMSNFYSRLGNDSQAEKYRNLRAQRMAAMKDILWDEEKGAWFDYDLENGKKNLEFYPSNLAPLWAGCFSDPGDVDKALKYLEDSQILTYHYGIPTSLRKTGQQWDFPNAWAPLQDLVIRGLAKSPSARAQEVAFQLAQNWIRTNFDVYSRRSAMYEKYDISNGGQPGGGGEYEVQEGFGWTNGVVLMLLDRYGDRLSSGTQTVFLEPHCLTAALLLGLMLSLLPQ

[3] = Inhibition of human lysosomal beta-glucosidase using 4-methylumbelliferyl-beta-D-glucopyranoside as substrate preincubated for 45 mins followed by substrate addition measured after 30 mins by fluorescence spectrophotometric method
[4] = biological target: T2, Tissue alpha-L-fucosidase (Bos taurus) (UniProt Q2KIM0); test: Inhibition of bovine kidney alpha-L-fucosidase at 100 uM using p-nitrophenyl-glycoside as substrate by spectrophotometric method
T2 sequence (whole entry): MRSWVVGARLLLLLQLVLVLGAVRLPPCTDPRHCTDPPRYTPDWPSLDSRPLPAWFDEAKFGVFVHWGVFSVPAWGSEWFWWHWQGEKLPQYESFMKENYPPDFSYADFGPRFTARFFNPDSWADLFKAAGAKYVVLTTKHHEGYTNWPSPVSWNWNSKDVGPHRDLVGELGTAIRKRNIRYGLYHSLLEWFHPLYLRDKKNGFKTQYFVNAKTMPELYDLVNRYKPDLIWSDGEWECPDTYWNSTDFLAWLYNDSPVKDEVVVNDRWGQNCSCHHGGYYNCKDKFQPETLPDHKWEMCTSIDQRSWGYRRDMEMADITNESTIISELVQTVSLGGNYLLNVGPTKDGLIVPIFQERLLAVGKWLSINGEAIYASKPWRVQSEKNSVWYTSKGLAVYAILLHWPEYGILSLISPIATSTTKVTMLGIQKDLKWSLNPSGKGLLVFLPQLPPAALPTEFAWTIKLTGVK

Prunus dulcis [5] = test: Inhibition of almond beta-glucosidase at 100 uM using p-nitrophenyl-glycoside as substrate by spectrophotometric method
Aspergillus niger [6] = test: Inhibition of Aspergillus niger amyloglucosidase assessed as D-glucose level at 100 uM using maltose as substrate measured after 10 to 30 mins
Oryza sativa [7] = test: Inhibition of rice alpha-glucosidase at 100 uM using p-nitrophenyl-glycoside as substrate by spectrophotometric method
Beta-galactosidase = biological target: T3, Beta-galactosidase (Bos taurus, UniProt Q58D55); test: Inhibition of bovine liver beta-galactosidase using p-nitrophenyl-glycoside as substrate by spectrophotometric method
T3 sequence (Q58D55 whole entry): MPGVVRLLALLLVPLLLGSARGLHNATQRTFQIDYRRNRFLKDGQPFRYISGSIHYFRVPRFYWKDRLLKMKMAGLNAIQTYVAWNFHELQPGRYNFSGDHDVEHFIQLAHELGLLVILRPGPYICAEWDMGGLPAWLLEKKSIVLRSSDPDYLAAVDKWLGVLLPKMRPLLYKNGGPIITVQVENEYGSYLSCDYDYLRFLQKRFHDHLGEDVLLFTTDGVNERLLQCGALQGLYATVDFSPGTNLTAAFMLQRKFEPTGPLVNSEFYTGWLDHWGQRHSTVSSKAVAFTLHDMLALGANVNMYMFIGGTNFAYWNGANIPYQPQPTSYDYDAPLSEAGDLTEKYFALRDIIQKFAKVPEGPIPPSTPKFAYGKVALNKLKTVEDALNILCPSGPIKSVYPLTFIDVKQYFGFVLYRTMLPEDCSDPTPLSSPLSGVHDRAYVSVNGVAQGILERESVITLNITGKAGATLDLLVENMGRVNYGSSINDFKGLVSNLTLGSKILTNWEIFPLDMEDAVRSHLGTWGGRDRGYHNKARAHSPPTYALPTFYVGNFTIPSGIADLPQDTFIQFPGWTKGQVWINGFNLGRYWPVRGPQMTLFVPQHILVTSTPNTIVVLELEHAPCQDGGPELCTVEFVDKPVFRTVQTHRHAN

[8] = Inhibition of Penicillium decumbens alpha-L-rhamnosidase using p-nitrophenyl-glycoside as substrate by spectrophotometric method
Escherichia coli [9] = test: Inhibition of Escherichia coli beta-glucuronidase at 100 uM using p-nitrophenyl-glycoside as substrate by spectrophotometric method
Rattus norvegicus [10] = species on record: Rattus norvegicus; test: Inhibition of rat intestinal maltase assessed as D-glucose level at 100 uM using maltose as substrate measured after 10 to 30 mins
Prunus dulcis [11] = test: Inhibition of almond beta-glucosidase at 1000 uM using p-nitrophenyl-glycoside as substrate by spectrophotometric method
Bos taurus [12] = species on record: Bos taurus; test: Inhibition of bovine liver beta-glucosidase at 1000 uM using p-nitrophenyl-glycoside as substrate by spectrophotometric method
[13] = biological target: T4, Beta-galactosidase (Bos taurus) (UniProt Q58D55); test: Inhibition of bovine liver beta-galactosidase at 1000 uM using p-nitrophenyl-glycoside as substrate by spectrophotometric method
T4 sequence (whole entry): T3 sequence (Q58D55 whole entry)

Penicillium decumbens = test: Inhibition of Penicillium decumbens alpha-L-rhamnosidase at 1000 uM using p-nitrophenyl-glycoside as substrate by spectrophotometric method
Escherichia coli [14] = test: Inhibition of Escherichia coli beta-glucuronidase at 1000 uM using p-nitrophenyl-glycoside as substrate by spectrophotometric method
[15] = biological target: T1, Uncharacterized protein (Sus scrofa); test: Inhibition of porcine kidney trehalase assessed as D-glucose level at 1000 uM using maltose as substrate measured after 10 to 30 mins
Aspergillus niger [16] = test: Inhibition of Aspergillus niger amyloglucosidase assessed as D-glucose level at 1000 uM using maltose as substrate measured after 10 to 30 mins
Rattus norvegicus [17] = species on record: Rattus norvegicus; test: Inhibition of rat intestinal maltase assessed as D-glucose level at 1000 uM using maltose as substrate measured after 10 to 30 mins
Oryza sativa [18] = test: Inhibition of rice alpha-glucosidase at 1000 uM using p-nitrophenyl-glycoside as substrate by spectrophotometric method
[19] = biological target: T2, Tissue alpha-L-fucosidase (Bos taurus); test: Inhibition of bovine kidney alpha-L-fucosidase at 1000 uM using p-nitrophenyl-glycoside as substrate by spectrophotometric method
Bos taurus [20] = species on record: Bos taurus; test: Inhibition of bovine liver beta-glucosidase at 100 uM using p-nitrophenyl-glycoside as substrate by spectrophotometric method
Homo sapiens = species on record: Homo sapiens; test: Inhibition of human lysosomal beta-glucosidase at 100 uM using 4-methylumbelliferyl-beta-D-glucopyranoside as substrate preincubated for 45 mins followed by substrate addition measured after 30 mins by fluorescence spectrophotometric method
[21] = Inhibition of Penicillium decumbens alpha-L-rhamnosidase

SMILES: CCCCCCCCCCCC/N=C1/SC[C@@H]2[C@@H](O)[C@H](O)[C@@H](CO)N12
- pIC50 [1]: 4.20
- inhibition [2]: < 50%
- pIC50 [3]: 6.00
- inhibition [4]: < 50%
- inhibition (Prunus dulcis [5]): < 50%
- inhibition (Aspergillus niger [6]): < 50%
- inhibition (Oryza sativa [7]): < 50%
- pIC50 (Beta-galactosidase): 4.49
- pIC50 [8]: 4.17
- inhibition (Escherichia coli [9]): < 50%
- inhibition (Rattus norvegicus [10]): < 50%

SMILES: CCCC/N=C1/SC[C@@H]2[C@@H](O)[C@H](O)[C@@H](CO)N12
- inhibition (Prunus dulcis [11]): < 50%
- inhibition (Bos taurus [12]): < 50%
- inhibition [13]: < 50%
- inhibition (Penicillium decumbens): < 50%
- inhibition (Escherichia coli [14]): < 50%
- pIC50 [3]: 3.27
- inhibition [15]: < 50%
- inhibition (Aspergillus niger [16]): < 50%
- inhibition (Rattus norvegicus [17]): < 50%
- inhibition (Oryza sativa [18]): < 50%
- inhibition [19]: < 50%

SMILES: CCCCCCCCCC/N=C1/SC[C@H]2[C@H](O)[C@@H](O)[C@H](CO)N12
- inhibition [2]: < 50%
- inhibition [4]: < 50%
- inhibition (Prunus dulcis [5]): < 50%
- inhibition (Aspergillus niger [6]): < 50%
- inhibition (Oryza sativa [7]): < 50%
- inhibition (Bos taurus [20]): < 50%
- pIC50 (Beta-galactosidase): 4.44
- inhibition (Homo sapiens): < 50%
- pIC50 [8]: 6.11
- inhibition (Escherichia coli [9]): < 50%
- inhibition (Rattus norvegicus [10]): < 50%

SMILES: OC[C@H]1[C@H](O)[C@@H](O)[C@@H]2CS/C(=N/Cc3ccc(Cl)cc3)N12
- pIC50 [8]: 6.05

SMILES: CCCCCCCCCCCC/N=C1/SC[C@H]2[C@H](O)[C@@H](O)[C@H](CO)N12
- pIC50 [1]: 5.02
- inhibition [2]: < 50%
- inhibition [4]: < 50%
- inhibition (Prunus dulcis [5]): < 50%
- inhibition (Aspergillus niger [6]): < 50%
- inhibition (Oryza sativa [7]): < 50%
- pIC50 (Beta-galactosidase): 4.96
- inhibition (Homo sapiens): < 50%
- pIC50 [8]: 6.34
- inhibition (Escherichia coli [9]): < 50%
- inhibition (Rattus norvegicus [10]): < 50%

SMILES: OC[C@H]1[C@@H](O)[C@@H](O)CN1Cc1ccccc1
- pIC50 [21]: 4.68

SMILES: C[C@@H]1C[C@H](O)[C@H]2[C@@H](O)[C@@H](O)CN2C1
- pIC50 [21]: 7.47 to 7.49

SMILES: OC[C@H]1[C@@H](O)[C@H](O)[C@@H]2CS/C(=N/Cc3ccc(Cl)c(Cl)c3)N12
- inhibition (Penicillium decumbens): 9.3%

SMILES: OC[C@H]1[C@H](O)[C@@H](O)[C@@H]2CS/C(=N/Cc3ccccc3Cl)N12
- pIC50 [8]: 5.60

SMILES: COc1ccc(C/N=C2/SC[C@H]3[C@H](O)[C@@H](O)[C@H](CO)N23)cc1
- pIC50 [8]: 5.80

SMILES: Cc1ccc(C/N=C2/SC[C@H]3[C@H](O)[C@@H](O)[C@H](CO)N23)cc1
- pIC50 [8]: 5.92

SMILES: COc1ccc(C[C@@H]2NC[C@H](O)[C@H]2O)cc1
- pIC50 [21]: 5.43

SMILES: OC[C@H]1[C@H](O)[C@@H](O)[C@@H]2CS/C(=N/Cc3cccc(Cl)c3)N12
- pIC50 [8]: 6.15

Reference: ChEMBL document CHEMBL3868599, “Strategy for designing selective α-l-rhamnosidase inhibitors: Synthesis and biological evaluation of l-DMDP cyclic isothioureas” (Bioorg Med Chem, 2017)
